We go through 14 compounds from PubChem BioAssay (NCI).

Test systems include EKVX NSCLC; HOP-62 NSCLC; SK-MEL-28 melanoma; SW-620 colon; RPMI-8226 leukemia; DU-145 prostate; OVCAR-3 ovarian; UACC-62 melanoma; BT-549 breast; MDA-MB-435.
What all share (experiment): DTP human tumour cell line panel, 48 h

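Values below derive from 48-hour exposures of cells grown in 96-well plates, with endpoints linearly interpolated between the two concentrations bracketing the appropriate inhibition level. GI50 marks 50% less growth. TGI denotes the concentration required for complete inhibition of growth.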

As to `COc1ccc(-c2nc(Nc3ccc(-c4nc5ccccc5[nH]4)cc3)nc(N3CCOCC3)n2)cc1`, the GI50 with EKVX NSCLC was 2.6 µM; in the experiment on HOP-62 NSCLC it was 2.11 µM; in the experiment with SK-MEL-28 melanoma, 1.8 µM; in the experiment with SW-620 colon, 2.19 µM; in the experiment on RPMI-8226 leukemia, 1.93 µM; with DU-145 prostate, 4.54 µM. Also, the TGI was more than 100 µM with EKVX NSCLC; 5.3 µM in the experiment with HOP-62 NSCLC; 4.28 µM in the experiment on SK-MEL-28 melanoma; 4.8 µM with SW-620 colon; 6.54 µM with RPMI-8226 leukemia; more than 100 µM in the experiment on DU-145 prostate.

Consider `COc1ccc2c(c1)[n+]([O-])c(-c1ccc(Br)cc1)c(N)[n+]2[O-]`, for which the TGI was more than 100 µM in the experiment with EKVX NSCLC; more than 100 µM with HOP-62 NSCLC; 71.5 µM with SK-MEL-28 melanoma; more than 100 µM with SW-620 colon; more than 100 µM in the experiment with OVCAR-3 ovarian.

On to `C[C@]12CCC[C@H](O)[C@H]1C[C@H](CO)CC2`, for which the TGI with UACC-62 melanoma, in the experiment with HOP-62 NSCLC, with SK-MEL-28 melanoma, with SW-620 colon, in the experiment with RPMI-8226 leukemia and with OVCAR-3 ovarian was more than 100 µM throughout.

As for `N.N.O=P([O-])([O-])CN(CCN(CP(=O)([O-])[O-])CP(=O)([O-])[O-])CP(=O)([O-])[O-].[Pt+2]`, the GI50 in the experiment on UACC-62 melanoma, with EKVX NSCLC, in the experiment with HOP-62 NSCLC, with SK-MEL-28 melanoma, in the experiment on SW-620 colon and with RPMI-8226 leukemia was more than 100 µM throughout. In the experiment on OVCAR-3 ovarian, the GI50 is more than 100 µM. Besides, the TGI with UACC-62 melanoma, in the experiment with EKVX NSCLC, in the experiment with HOP-62 NSCLC, in the experiment with SK-MEL-28 melanoma, in the experiment with SW-620 colon and in the experiment on RPMI-8226 leukemia was more than 100 µM in each case. The same compound came in with a concentration for total growth inhibition (TGI) in the experiment on OVCAR-3 ovarian of more than 100 µM.

With `CSc1nc2c(nc(N)n2C2OC(COC(C)=O)C(OC(C)=O)C(OC(C)=O)C2OC(C)=O)c(=O)n1C` (stereo unspecified), the TGI with UACC-62 melanoma, in the experiment on EKVX NSCLC, in the experiment on HOP-62 NSCLC, in the experiment with SW-620 colon, in the experiment on RPMI-8226 leukemia and with OVCAR-3 ovarian was more than 100 µM in each case.

In the case of `COC(=O)NC(=Nc1ccc(Oc2ccccc2)cc1NC=O)NC(=O)OC`, the TGI in the experiment with UACC-62 melanoma, with EKVX NSCLC, in the experiment on HOP-62 NSCLC, in the experiment on SW-620 colon and in the experiment on RPMI-8226 leukemia was more than 100 µM throughout.

On to `CO[C@]12C=C/C(=C(/C(=O)OCc3cccnc3)C(=O)CCCCCCCC[C@@]3(OC)C=C/C(=C(/C(=O)OCc4cccnc4)C(=O)CCCCCCCC1)O3)O2`, for which the GI50 was 1.51 µM in the experiment on BT-549 breast; 1.97 µM with EKVX NSCLC; 1.37 µM with SK-MEL-28 melanoma; 1.62 µM in the experiment on SW-620 colon; 1.09 µM with RPMI-8226 leukemia; 1.76 µM in the experiment on DU-145 prostate. For the same compound, in the experiment with OVCAR-3 ovarian, the GI50 was 1.16 µM. Further, the TGI was 4.29 µM with BT-549 breast; more than 50 µM in the experiment on EKVX NSCLC; 6.45 µM in the experiment on SK-MEL-28 melanoma; 6.75 µM in the experiment on SW-620 colon; 5.87 µM with RPMI-8226 leukemia; 12.7 µM with DU-145 prostate. Besides, in the experiment on OVCAR-3 ovarian, the TGI worked out at 3.84 µM.

`C/C=C(/CCC1NCCC2c3ccccc3NC12)[Si](C)(C)C` (stereo unspecified): the TGI is 26.4 µM with UACC-62 melanoma; 27.4 µM in the experiment on EKVX NSCLC; 28.6 µM in the experiment with HOP-62 NSCLC; 16.9 µM with SK-MEL-28 melanoma; 9.68 µM in the experiment with SW-620 colon; 13.7 µM with RPMI-8226 leukemia. The TGI with OVCAR-3 ovarian was 24 µM.

For `Cc1ccc(/C=C/C(=N/N=C(N)N)c2ccccc2)cc1`, the GI50 in the experiment with UACC-62 melanoma is 2.65 µM; in the experiment with EKVX NSCLC, 10.1 µM; in the experiment on HOP-62 NSCLC, 3.57 µM; in the experiment with SK-MEL-28 melanoma it was 3.95 µM; with MDA-MB-435 it was 0.432 µM; in the experiment with SW-620 colon it was 2.47 µM. The GI50 was 2.3 µM with RPMI-8226 leukemia, 3.33 µM in the experiment with DU-145 prostate and 2.28 µM in the experiment with OVCAR-3 ovarian. Also, the TGI in the experiment with UACC-62 melanoma came to 11.9 µM; with EKVX NSCLC, 28 µM; with HOP-62 NSCLC, 16 µM; in the experiment on SK-MEL-28 melanoma, 15.8 µM; with MDA-MB-435 it was 4.93 µM; in the experiment with SW-620 colon, 13.8 µM. For the same compound, the TGI was 7.98 µM in the experiment on RPMI-8226 leukemia, 10.8 µM in the experiment with DU-145 prostate and 6.03 µM with OVCAR-3 ovarian.

Take `COC(=O)C1=Cc2cc(OC)c(OC)cc2[C@H](c2ccc(OC)c(OC)c2)C1C(=O)OC` (stereo partly specified): the TGI with UACC-62 melanoma, with EKVX NSCLC, in the experiment on HOP-62 NSCLC, with SK-MEL-28 melanoma, in the experiment on SW-620 colon and with RPMI-8226 leukemia was more than 100 µM each time. The TGI in the experiment on OVCAR-3 ovarian was more than 100 µM.

For the compound `O=C(/C=C/c1ccccc1Cl)c1cccc2ccccc12`, the TGI in the experiment on UACC-62 melanoma came out at 28.6 µM; with EKVX NSCLC, 25.4 µM; in the experiment with HOP-62 NSCLC, 28.9 µM; in the experiment on SK-MEL-28 melanoma it was 28.1 µM; in the experiment with SW-620 colon it was 4.06 µM; in the experiment on RPMI-8226 leukemia, 91 µM. For the same compound, the TGI in the experiment on OVCAR-3 ovarian worked out at 15 µM.

For `COC(=O)N/N=C(\C(=O)Nc1cccc([N+](=O)[O-])c1)c1nc2ccc([N+](=O)[O-])cc2[nH]c1=O`, the TGI in the experiment on UACC-62 melanoma was 58.5 µM; with EKVX NSCLC, more than 100 µM; in the experiment with HOP-62 NSCLC, 66.5 µM; in the experiment on SK-MEL-28 melanoma, more than 100 µM; in the experiment with SW-620 colon, more than 100 µM; with RPMI-8226 leukemia, more than 100 µM. In the experiment on OVCAR-3 ovarian, this compound yielded a TGI of more than 100 µM.

On to `NC(=O)c1ncn(CCN2CCN(C(=O)NCCCCCCNC(=O)N3CCN(CCn4cnc(C(N)=O)c4N)CC3)CC2)c1N`, for which the TGI in the experiment with UACC-62 melanoma, in the experiment with EKVX NSCLC, with HOP-62 NSCLC, with SK-MEL-28 melanoma, in the experiment on SW-620 colon and in the experiment on RPMI-8226 leukemia was more than 100 µM each time. Besides, the TGI in the experiment on OVCAR-3 ovarian was more than 100 µM.

Turning to `O=C(CC1(O)C(=O)Nc2ccccc21)c1ccc(F)cc1` (stereo unspecified), the TGI with UACC-62 melanoma, in the experiment on EKVX NSCLC, with SK-MEL-28 melanoma, in the experiment on SW-620 colon, in the experiment with RPMI-8226 leukemia and in the experiment on OVCAR-3 ovarian was more than 100 µM in each case.

The term GI50 denotes the concentration giving 50% growth inhibition. The term TGI denotes the concentration giving total growth inhibition. Read a high TGI as lower sensitivity of the cells.
